Measured values published in patent publication US11999742B2, “Substituted pyrrolo[1,2-b]pyridazines as anthelmintics” (BOEHRINGER INGELHEIM VETMEDICA GMBH, priority 2021, dated 2024).

Tests used:
[1] = system: Dirofilaria immitis (JYD-34 isolate); assay: In vivo efficacy against resistant JYD-34 isolate in immune-deficient NSG mice; conditions: po, 1080 h, read-out: efficacy (live D. immitis larvae recovered), NSG mice, oral 25 mg/kg on Day 1, 15 and 30, count at Day 45
[2] = system: Dirofilaria immitis (JYD-34 isolate); assay: In vivo efficacy against resistant JYD-34 isolate in beagle dogs (Biological Example 6); conditions: necropsy day 120; for % Efficacy / Geometric Mean Live Heartworm Count: beagle dogs, JYD-34 isolate, 5 mg/kg oral, four times at monthly intervals (Days 0, 27, 55, 84); for efficacy against adult heartworm compared with Interceptor: beagles, oral 5 mg/kg four times at monthly intervals
[3] = system: Dirofilaria immitis (JYD-34 isolate); assay: In vivo efficacy against resistant JYD-34 isolate in beagle dogs (Biological Example 8); conditions: for efficacy at preventing infections with adult heartworm: beagles
[4] = system: Dirofilaria immitis (JYD-34 isolate); assay: In vivo efficacy at two dosages against resistant JYD-34 isolate in beagle dogs (Biological Example 7); conditions: for % Efficacy / Geometric Mean Live Heartworm Count: beagle dogs, JYD-34 isolate; for efficacy against adult heartworm: beagles
[5] = beagle dogs, JYD-34 isolate, 5 mg/kg monthly for four months
[6] = 5 mg/kg single dose monthly for four months
[7] = 10 mg/kg (over 2 consecutive days, 5 mg/kg each) monthly for four months
[8] = 5 mg/kg monthly for four months on two consecutive days

CC(C)(C)c1c(C(=O)N[C@H]2CCOc3ccccc32)cnn2c(-c3c(F)cc(F)cc3F)c(Cl)cc12 [Compound A484]
inhibition in vivo at 25 mg/kg [1]: 50 to 70%

Cc1cc2c(C(C)(C)C)c(C(=O)N[C@H]3CCOc4ccccc43)cnn2c1-c1cc(F)cc(F)c1F [Compound A471]
% Efficacy [2]: 39.0%
Geometric Mean Live Heartworm Count [2]: 16.5
efficacy against adult heartworm compared with Interceptor [2]: more effective than the commercial product Interceptor™

CC(C)(C)c1c(C(=O)N[C@H]2CCOc3ccccc32)cnn2c(-c3cc(F)cc(Cl)c3Cl)c(Cl)cc12 [Compound A502, 4-tert-butyl-6-chloro-7-(2,3-dichloro-5-fluorophenyl)-N-[(4S)-3,4-dihydro-2H-1-benzopyran-4-yl]pyrrolo[1,2-b]pyridazine-3-carboxamide]
inhibition in vivo at 25 mg/kg [1]: 70 to 90%

Cc1cc2c(C(C)(C)C)c(C(=O)N[C@H]3CCOc4ccccc43)cnn2c1-c1cc(Cl)cc(Cl)c1 [Compound A464]
inhibition in vivo at 25 mg/kg [1]: 70 to 90%
% Efficacy [2]: 38.2%
Geometric Mean Live Heartworm Count [2]: 16.7
efficacy against adult heartworm compared with Interceptor [2]: more effective than the commercial product Interceptor™

Cc1cc2c(C(C)(C)C)c(C(=O)N[C@H]3CCOc4ccccc43)cnn2c1-c1cc(Cl)cc(Cl)c1Cl [Compound A472]
inhibition in vivo at 25 mg/kg [1]: > 90%
% Efficacy [3, 5]: 100.0%
Live Heartworm Count (geo. mean) [3, 5]: 0
efficacy at preventing infections with adult heartworm ([3]; 5 mg/kg body weight monthly for four months): 100%

milbemycin oxime [reference compound]
efficacy at preventing infections with adult heartworm ([3]; Interceptor (milbemycin oxime) positive control group): 16.6%

Cc1cc2c(N3CCOCC3)c(C(=O)N[C@H]3CCOc4ccccc43)cnn2c1-c1cc(F)cc(F)c1F [Compound A491]
inhibition in vivo at 25 mg/kg [1]: < 50%

Cc1cc2c(N(C)C)c(C(=O)N[C@H]3CCOc4ccccc43)cnn2c1-c1cc(F)cc(Cl)c1Cl [Compound A493, 7-(2,3-dichloro-5-fluorophenyl)-N-[(4S)-3,4-dihydro-2H-1-benzopyran-4-yl]-4-(dimethylamino)-6-methylpyrrolo[1,2-b]pyridazine-3-carboxamide]
inhibition in vivo at 25 mg/kg [1]: > 90%
% Efficacy [4, 6]: 99.0%
Geometric Mean Live Heartworm Count [4, 6]: 0.3
% Efficacy [4, 7]: 100.0%
Geometric Mean Live Heartworm Count [4, 7]: 0
efficacy against adult heartworm [4, 8]: 100%
efficacy against adult heartworm ([4]; one single dosage of 5 mg/kg monthly for four months): 99%

Cc1cc2c(C(C)C)c(C(=O)N[C@H]3CCOc4ccccc43)cnn2c1-c1cc(Cl)cc(Cl)c1 [Compound A465, 7-(3,5-dichlorophenyl)-N-[(4S)-3,4-dihydro-2H-1-benzopyran-4-yl]-6-methyl-4-(propan-2-yl)pyrrolo[1,2-b]pyridazine-3-carboxamide]
inhibition in vivo at 25 mg/kg [1]: 50 to 70%

CC(C)(C)c1c(C(=O)N[C@H]2CCOc3ccccc32)cnn2c(-c3cc(F)cc(F)c3F)c(Cl)cc12 [Compound A486]
inhibition in vivo at 25 mg/kg [1]: 70 to 90%

Cc1cc2c(N3CC(F)(F)C3)c(C(=O)N[C@H]3CCOc4ccccc43)cnn2c1-c1cc(F)cc(Cl)c1Cl [Compound A504]
inhibition in vivo at 25 mg/kg [1]: > 90%

CN(C)c1c(C(=O)N[C@H]2CCOc3ccccc32)cnn2c(-c3cc(Cl)cc(Cl)c3Cl)c(Cl)cc12 [Compound A473]
inhibition in vivo at 25 mg/kg [1]: > 90%

Cc1cc2c(C(C)(C)C)c(C(=O)N[C@H]3CCOc4ccccc43)cnn2c1-c1cc(F)cc(F)c1F [Compound A566]
inhibition in vivo at 25 mg/kg [1]: 70 to 90%

CC(C)(C)c1c(C(=O)N[C@H]2CCOc3ccccc32)cnn2c(-c3cc(Cl)cc(Cl)c3Cl)c(Cl)cc12 [Compound A522]
inhibition in vivo at 25 mg/kg [1]: > 90%

O=C(N[C@H]1CCOc2ccccc21)c1cnn2c(-c3cc(F)cc(Cl)c3Cl)c(Cl)cc2c1N1CC(F)(F)C1 [Compound A507]
inhibition in vivo at 25 mg/kg [1]: > 90%

Cc1cc2c(C(C)(C)C)c(C(=O)NN3CCOc4ccccc43)cnn2c1-c1cc(F)cc(Cl)c1Cl [Compound A495]
inhibition in vivo at 25 mg/kg [1]: 50 to 70%

Cc1cc2c(C(C)(C)C)c(C(=O)N[C@H]3CCOc4ccccc43)cnn2c1-c1cc(F)cc(Cl)c1Cl [Compound A481, 4-tert-butyl-7-(2,3-dichloro-5-fluorophenyl)-N-[(4S)-3,4-dihydro-2H-1-benzopyran-4-yl]-6-methylpyrrolo[1,2-b]pyridazine-3-carboxamide]
inhibition in vivo at 25 mg/kg [1]: 70 to 90%
% Efficacy [4, 6]: 64.2%
Geometric Mean Live Heartworm Count [4, 6]: 11.3
% Efficacy [4, 7]: 98.0%
Geometric Mean Live Heartworm Count [4, 7]: 0.6
efficacy against adult heartworm [4, 8]: about 98%

Cc1cc2c(N3CCOCC3)c(C(=O)N[C@H]3CCOc4ccccc43)cnn2c1-c1cc(Cl)cc(Cl)c1Cl [Compound A501]
inhibition in vivo at 25 mg/kg [1]: 70 to 90%

Cc1cc2c(C(C)C)c(C(=O)N[C@H]3CCOc4ccccc43)cnn2c1-c1cc(F)cc(Cl)c1Cl [Compound A489]
inhibition in vivo at 25 mg/kg [1]: 70 to 90%
